Data: PubChem BioAssay (NCI)
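Cultured in 96-well plates, cells were exposed to test compound for 48 hours across five concentrations. TGI: total growth inhibition.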

What was measured:
Experiment in all cases: growth of human tumour cells (NCI), 48 h
K-562 leukemia = tested on: K-562 leukemia
DU-145 prostate = tested on: DU-145 prostate
HL-60(TB) leukemia = tested on: HL-60(TB) leukemia
RXF 393 renal = tested on: RXF 393 renal
HS 578T breast = tested on: HS 578T breast
SNB-19 CNS = tested on: SNB-19 CNS
HOP-92 NSCLC = tested on: HOP-92 NSCLC
CAKI-1 renal = tested on: CAKI-1 renal
SK-MEL-28 melanoma = tested on: SK-MEL-28 melanoma
RPMI-8226 leukemia = tested on: RPMI-8226 leukemia
COLO 205 colon = tested on: COLO 205 colon
OVCAR-4 ovarian = tested on: OVCAR-4 ovarian
SW-620 colon = tested on: SW-620 colon
MOLT-4 leukemia = tested on: MOLT-4 leukemia
UO-31 renal = tested on: UO-31 renal
A498 renal = tested on: A498 renal
NCI-H23 lung = tested on: NCI-H23 lung
SK-MEL-5 melanoma = tested on: SK-MEL-5 melanoma
KM12 colon = tested on: KM12 colon

Structure (SMILES) | TGI (K-562 leukemia) | TGI (DU-145 prostate) | TGI (HL-60(TB) leukemia) | TGI (RXF 393 renal) | TGI (HS 578T breast) | TGI (SNB-19 CNS) | TGI (HOP-92 NSCLC) | TGI (CAKI-1 renal) | TGI (SK-MEL-28 melanoma) | TGI (RPMI-8226 leukemia) | TGI (COLO 205 colon) | TGI (OVCAR-4 ovarian) | TGI (SW-620 colon) | TGI (MOLT-4 leukemia) | TGI (UO-31 renal) | TGI (A498 renal) | TGI (NCI-H23 lung) | TGI (SK-MEL-5 melanoma) | TGI (KM12 colon)
COC(=O)[C@H](Cc1ccccc1)NC(=O)N1CCCN(C(=O)N[C@@H](Cc2ccccc2)C(=O)OC)CCCN(C(=O)N[C@@H](Cc2ccccc2)C(=O)OC)CCC1 | > 100 µM | 34 µM | 69.2 µM | 32.6 µM | 44.6 µM | 74.8 µM | 30.3 µM | > 100 µM | 35.4 µM | > 100 µM | 34.8 µM | 54.7 µM | 39.7 µM | 40.8 µM | 29.4 µM | 44.3 µM | 53.3 µM | 35.9 µM | > 100 µM
CC(C)CC[C@H](O)[C@@H](C)[C@H]1[C@@H](OC2OC(C)C(O)C(O)C2O)C[C@H]2[C@@H]3CC=C4C[C@@H](O)CC[C@]4(C)[C@H]3[C@@H](O)C[C@]12C (stereo not given in full) | 0.422 µM | > 100 µM | > 100 µM | > 100 µM | 2.36 µM | > 100 µM | 6.7 µM | > 64 µM | 6.47 µM | 0.229 µM | 7.17 µM |  | > 19.9 µM | 0.508 µM | 21.7 µM | > 34.9 µM | > 100 µM | > 58 µM | 
CN(C)c1ccc(/C=C(\NC(=O)c2ccccc2)C(=O)NCC(=O)O)cc1 | > 100 µM | > 100 µM | > 100 µM | > 100 µM | > 100 µM | > 100 µM | > 100 µM | > 100 µM | > 100 µM | > 100 µM | > 100 µM |  | > 100 µM | > 100 µM | > 100 µM | > 100 µM | > 100 µM | > 100 µM | > 100 µM
S=C1Cc2c(-c3ccc(Cl)cc3)cc(-c3ccccc3)nc2-c2ccccc2N1 | > 100 µM | > 100 µM | > 100 µM | 21.9 µM | 16.3 µM | 21.5 µM | 26.7 µM | 13.1 µM | > 100 µM | > 100 µM | 49.5 µM | 18 µM | > 100 µM | > 100 µM | 35.8 µM | 33 µM | 27.2 µM | > 100 µM | 50.9 µM
n1onc2c1NC1Nc3nonc3NC1N2 (stereo not given) | > 100 µM | > 100 µM | > 100 µM |  | > 100 µM | > 100 µM | > 100 µM | > 100 µM | > 100 µM | > 100 µM | > 100 µM | > 100 µM | > 100 µM | > 100 µM | > 100 µM | > 100 µM | > 100 µM | > 100 µM | > 100 µM
COc1cc(/C=C2/SC(c3ccccc3)N(c3cccc(Cl)c3)C2=O)cc(OC)c1OC (stereo not given) | > 100 µM | > 100 µM | > 100 µM | 53.1 µM | > 100 µM | > 100 µM | 77.4 µM | > 100 µM | 90.1 µM | 58.3 µM | > 100 µM | > 100 µM | > 100 µM | > 100 µM | > 100 µM | > 100 µM | > 100 µM | > 100 µM | > 100 µM
